The target of one data set is fibrillar Aβ aggregates (Homo sapiens, UniProt P05067). Conditions: Mathis et al. 1997; read-out: inhibition constants (Ki) for binding to fibrillar Aβ aggregates; cited from earlier work.
In data set [1] the target is Aβ plaques (postmortem AD brain homogenates) (Homo sapiens, UniProt P05067). The experiment in a line: Binding assay: inhibition of [125I]IMPY binding in postmortem AD brain homogenates. The method, then:
Postmortem brain tissues were obtained from AD patients at autopsy, and neuropathological diagnosis was confirmed by current criteria (NIA-Reagan Institute Consensus Group, 1997). Homogenates were then prepared from dissected gray matters from AD patients in phosphate buffered saline (PBS, pH 7.4) at the concentration of approximately 100 mg wet tissue/ml (motor-driven glass homogenizer with setting of 6 for 30 sec).
Binding assays were carried out in 12×75 mm borosilicate glass tubes. […] The mixture was incubated at 37° C. for 2 hr and the bound and the free radioactivity were separated by vacuum filtration through Whatman GF/B filters using a Brandel M-24R cell harvester followed by 2×3 ml washes of PBS at room temperature. Filters containing the bound ^125I ligand were assayed for radioactivity content in a gamma counter (Packard 5000) with 70% counting efficiency. […] The results of inhibition experiments were subjected to nonlinear regression analysis using EBDA by which Ki values were calculated.

Data set [2] is described as follows: Partition coefficient (1-octanol/buffer). The data set is classed as physicochemical. Conditions: 1-octanol / 0.1 M phosphate buffer, pH 7.4. The procedure: Partition coefficients were measured by mixing the [^18F]tracer with 3 g each of 1-octanol and buffer (0.1 M phosphate, pH 7.4) in a test tube. The test tube was vortexed for 3 min at room temperature, followed by centrifugation for 5 min. Two weighed samples (0.5 g each) from the 1-octanol and buffer layers were counted in a well counter. The partition coefficient was determined by calculating the ratio of cpm/g of 1-octanol to that of buffer. Samples from the 1-octanol layer were re-partitioned until consistent partitions of coefficient values were obtained (usually the 3rd or 4th partition). The measurement was done in triplicate and repeated three times.

For another data set, the target named is AD cortical homogenates. Conditions: Kung et al. 2004, cited from earlier work.
A further data set deals with Aβ plaques. Conditions: cited from earlier work.
Data set [3] is described as follows: Organ distribution in normal mice after iv injection of [18F]tracers. The data set is classed as in vivo. Conditions: ICR mice, [18F]tracer in 0.1% BSA. The procedure:
The organs of interest were removed and weighed, and the radioactivity was assayed for radioactivity content with an automatic gamma counter. The percentage dose per organ was calculated by a comparison of the tissue counts to suitably diluted aliquots of the injected material. Total activities of blood were calculated under the assumption that they were 7% of the total body weight. The % dose/g of samples was calculated by comparing the sample counts with the count of the diluted initial dose.

Results on 17 compounds are retold here after patent US7858072B2, “Stilbene derivatives and their use for binding and imaging amyloid plaques” (The Trustees of the University of Pennsylvania, priority 2004, dated 2010).

A word on the Ki: it is the dissociation constant of the complex between target and ligand, obtained from inhibition or displacement. As usually defined, the Kd is the constant that tells how readily two partners part at equilibrium.

Read-outs that look alike come from different tables or passages of the source.

Aβ plaques (postmortem AD brain homogenates), sequence (P05067 672-711 limits assumed): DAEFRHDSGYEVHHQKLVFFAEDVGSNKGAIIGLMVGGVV
fibrillar Aβ aggregates, sequence (P05067 672-711 limits assumed): as above

Turning to `O=C(O)c1cc(/N=N/c2ccc(-c3ccc(/N=N/c4ccc(O)c(C(=O)O)c4)cc3)cc2)ccc1O` [CG, chrysamine-G], the Ki at fibrillar Aβ aggregates was 370 nM.
For `CNc1ccc(C=Cc2ccc(OCCOCCOCCOCCO)cc2)cc1` [Compound 3c, 2-{2-[2-(2-{4-[2-(4-Methylamino-phenyl)-vinyl]-phenoxy}-ethoxy)-ethoxy]-ethoxy}-ethanol], the inhibition constant (Ki) in data set [1] (read-out: Ki ± SEM, X = OH) was found to be 4.6 ± 0.2 nM.
Regarding `CNc1ccc(C=Cc2ccc(OCCOCC[18F])cc2)cc1` [[^18F]12a, [^18F][4-(2-{4-[2-(2-Fluoro-ethoxy)-ethoxy]-phenyl}-vinyl)-phenyl]-methyl-amine], the “logp value (lipophilicity)” value in data set [2] was 2.52.
`CNc1ccc(/C=C/c2ccc(O)cc2)cc1` [[^3H]SB-13]: the Kd at AD cortical homogenates was 2.4 ± 0.2 nM.
In the case of `CNc1ccc(C=Cc2ccc(OCCOCCOCCOCC[18F])cc2)cc1` [[^18F]12c], the “logp value (lipophilicity)” value in data set [2] was 2.05.
Take `[3H]N(c1ccc(/C=C/c2ccc(O)cc2)cc1)C([3H])([3H])[3H]` [[^3H]SB-13]: the binding capacity with AD cortical homogenates (AD cortical homogenates) is 14-45 pmol/mg protein.
In the case of `CNc1ccc(C=Cc2ccc(OCCOCCOCCOCCOCCO)cc2)cc1` [Compound 3d, 2-(2-{2-[2-(2-{4-[2-(4-Methylamino-phenyl)-vinyl]-phenoxy}-ethoxy)-ethoxy]-ethoxy}-ethoxy)-ethanol], the Ki in data set [1] (read-out: Ki ± SEM, X = OH) worked out at 5.2 ± 0.2 nM.
Consider `[11CH3]Nc1ccc(/C=C/c2ccc(O)cc2)cc1` [[^11C]SB-13], for which the “accumulation in the frontal cortex” value with Aβ plaques (mild to moderate AD patients, not in age-matched control subjects) was “high accumulation”.
With `CNc1ccc(C=Cc2ccc(OCCOCCOCCOCCOCC[18F])cc2)cc1` [[^18F]12d], in data set [2], the “logp value (lipophilicity)” value was 2.28.
Take `CNc1ccc(C=Cc2ccc(OCCOCCOCCOCCF)cc2)cc1` [Compound 12c, (4-{2-[4-(2-{2-[2-(2-Fluoro-ethoxy)-ethoxy]-ethoxy}-ethoxy)-phenyl]-vinyl}-phenyl)-methyl-amine]: the Blood in data set [3] (2 min) is recorded as 3.22 ± 0.20 % dose/g; in data set [3] (30 min), 1.88 ± 0.08 % dose/g; in data set [3] (1 hr) it was 1.81 ± 0.48 % dose/g; in data set [3] (2 hr), 1.60 ± 0.12 % dose/g. In addition, the Bone is 2.31 ± 0.12 % dose/g in data set [3] (2 min), 1.00 ± 0.02 % dose/g in data set [3] (30 min), 0.98 ± 0.27 % dose/g in data set [3] (1 hr) and 1.50 ± 0.05 % dose/g in data set [3] (2 hr). Also, the Brain in data set [3] (2 min) came out at 6.59 ± 0.19 % dose/g; in data set [3] (30 min), 1.27 ± 0.03 % dose/g; in data set [3] (1 hr), 1.20 ± 0.10 % dose/g; in data set [3] (2 hr), 1.21 ± 0.06 % dose/g.
With `CNc1ccc(C=Cc2ccc(OCCOCCF)cc2)cc1` [Compound 12a, [4-(2-{4-[2-(2-Fluoro-ethoxy)-ethoxy]-phenyl}-vinyl)-phenyl]-methyl-amine], the Blood came out at 2.64 ± 0.55 % dose/g in data set [3] (2 min), 2.42 ± 0.27 % dose/g in data set [3] (30 min), 2.04 ± 0.16 % dose/g in data set [3] (1 hr) and 2.77 ± 0.63 % dose/g in data set [3] (2 hr). In addition, the Bone in data set [3] (2 min) is on record as 1.89 ± 0.25 % dose/g; in data set [3] (30 min), 1.40 ± 0.11 % dose/g; in data set [3] (1 hr), 1.71 ± 0.23 % dose/g; in data set [3] (2 hr), 2.88 ± 0.07 % dose/g. The Brain is given as 8.14 ± 2.03 % dose/g in data set [3] (2 min), 3.00 ± 0.16 % dose/g in data set [3] (30 min), 2.60 ± 0.22 % dose/g in data set [3] (1 hr) and 2.14 ± 0.06 % dose/g in data set [3] (2 hr). The Ki in data set [1] (read-out: Ki ± SEM, X = F) was determined as 2.9 ± 0.2 nM.
Turning to `[11CH3]Nc1ccc(-c2nc3ccc(O)cc3s2)cc1` [[^11C]6-OH-BTA-1], in the data set with Aβ plaques (patients with diagnosed mild AD), the “retention in the cortex” value is “marked retention”.
As to `CNc1ccc(C=Cc2ccc(OCCOCCOCCOCCOCCF)cc2)cc1` [Compound 12d, [4-(2-{4-[2-(2-{2-[2-(2-Fluoro-ethoxy)-ethoxy]-ethoxy}-ethoxy)-ethoxy]-phenyl}-vinyl)-phenyl]-methyl-amine], the Blood in data set [3] (2 min) is 4.99 ± 0.38 % dose/g; in data set [3] (30 min), 4.66 ± 0.06 % dose/g; in data set [3] (1 hr), 2.89 ± 0.11 % dose/g; in data set [3] (2 hr) it was 2.59 ± 0.18 % dose/g. The Bone in data set [3] (2 min) was 2.24 ± 0.21 % dose/g; in data set [3] (30 min), 2.29 ± 0.21 % dose/g; in data set [3] (1 hr) it was 1.66 ± 0.01 % dose/g; in data set [3] (2 hr), 2.35 ± 0.27 % dose/g. The Brain in data set [3] (2 min) is reported as 7.30 ± 1.05 % dose/g; in data set [3] (30 min), 2.43 ± 0.03 % dose/g; in data set [3] (1 hr) it was 1.77 ± 0.11 % dose/g; in data set [3] (2 hr), 1.62 ± 0.03 % dose/g. Moreover, in data set [1] (read-out: Ki ± SEM, X = F), the Ki amounted to 6 ± 0.8 nM.
As for `CNc1ccc(C=Cc2ccc(OCCOCCOCC[18F])cc2)cc1` [[^18F]12b, [^18F]{4-[2-(4-{2-[2-(2-Fluoro-ethoxy)-ethoxy]-ethoxy}-phenyl)-vinyl]-phenyl}-methyl-amine], in data set [2], the “logp value (lipophilicity)” value was found to be 2.41. In data set [3] (2 hr), this compound registered a Bone of 2.74 % dose/g.
On to `CNc1ccc(C=Cc2ccc(OCCOCCO)cc2)cc1` [Compound 3a, 2-(2-{4-[2-(4-Methylamino-phenyl)-vinyl]-phenoxy}-ethoxy)-ethanol], for which the Ki in data set [1] (read-out: Ki ± SEM, X = OH) was determined as 5.2 ± 0.4 nM.
On the same count and under the same terms, the result for `CNc1ccc(C=Cc2ccc(OCCOCCOCCO)cc2)cc1` [Compound 3b, 2-[-2-(2-{4-[2-(4-Methylamino-phenyl)-vinyl]-phenoxy}-ethoxy)-ethoxy]-ethanol] reads 2.8 ± 0.2 nM.
For `CC(=C(C#N)C#N)c1ccc2cc(N(C)CCF)ccc2c1` [[^18F]FDDNP], the “relative residence time of the brain region of interest versus the pons” value in the data set with Aβ plaques (AD patients versus comparison subjects, PET) is reported as “significantly higher in AD patients”.
